Reference: patent US6716838B1, “Substituted polycyclic aryl and heteroaryl uracils as anticoagulative agents” (Pharmacia Corporation, priority 1999, dated 2004)

Experiments:
Assay type in all cases: biochemical
[1] = target: T1, recombinant soluble tissue factor and recombinant human factor VIIa (Homo sapiens, UniProt P08709); assay: TF-VIIa Assay; conditions: chromogenic substrate, 60 min at room temperature, pH 8.0
T1 construct: purchased American Diagnostica, Greenwich Conn; (factor VIIa); soluble TF made in house; host or cells: E. coli (soluble TF only)
Method: In this assay 100 nM recombinant soluble tissue factor and 2 nM recombinant human factor VIIa are added to a 96-well assay plate containing 0.4 mM of the substrate, N-Methylsulfonyl-D-phe-gly-arg-p-nitroaniline and either inhibitor or buffer (5 mM CaCl2, 50 mM Tris-HCl, pH 8.0, 100 mM NaCl, 0.1% BSA). The reaction, in a final volume of 100 ul is measured immediately at 405 nm to determine background absorbance. The plate is incubated at room temperature for 60 min, at which time the rate of hydrolysis of the substrate is measured by monitoring the reaction at 405 nm for the release of p-nitroaniline. Percent inhibition of TF-VIIa activity is calculated from OD405 nm value from the experimental and control sample.
(§1) Recombinant soluble TF, consisting of amino acids 1-219 of the mature protein sequence was expressed in E. coli and purified using a Mono Q Sepharose FPLC. Recombinant human VIIa was purchased from American Diagnostica, Greenwich Conn. and chromogenic substrate N-Methylsulfonyl-D-phe-gly-arg-p-nitroaniline was prepared by American Peptide Company, Inc., Sunnyvale, Calif. Factor Xa was obtained from Enzyme Research Laboratories, South Bend Ind., thrombin from Calbiochem, La Jolla, Calif., and trypsin and L-BAPNA from Sigma, St Louis Mo. The chromogenic substrates S-2765 and S-2238 were purchased from Chromogenix, Sweden.

human thrombin = human thrombin (Homo sapiens, UniProt P00734); assay: Thrombin Assay; conditions: chromogenic substrate, 60 min at room temperature, pH 8.0; read-out: Thrombin II IC50
Method: (§2) 0.28 nM human thrombin and 0.06 mM H-D-Phenylalanyl-L-pipecolyl-L-argioine-p-nitroaniline dihydrochloride are added to a 96-well assay plate containing either inhibitor or buffer (50 mM Tris-HCl, pH 8.0, 100 mM NaCl, 0.1% BSA). The reaction, in a final volume of 100 ul is measured immediately at 405 nm to determine background absorbance. The plate is incubated at room temperature for 60 min, at which time the rate of hydrolysis of the substrate is measured by monitoring the reaction at 405 nm for the release of p-nitroaniline. Percent inhibition of thrombin activity is calculated from OD405 nm value from the experimental and control sample.
as §1

human factor Xa = target: T2, human factor Xa (Homo sapiens, UniProt P00742); assay: Xa Assay; conditions: substrate S-2765, 60 min at room temperature, pH 8.0
T2 construct: leads from XII to XIIa to XIa to IXa and to the conversion of X to Xa; purchased Enzyme Research Laboratories, South Bend Ind
Method: as §2, with “0.3 nM” for “0.28 nM”, “human factor Xa” for “human thrombin”, “and 0.15” for “and 0.06”, “mM N-α-Benzyloxycarbonyl-D-arginyl-L-glycyl-L-arginine-p-nitroaniline-dihydrochloride (S-2765)” for “mM H-D-Phenylalanyl-L-pipecolyl-L-argioine-p-nitroaniline dihydrochloride”, “of Xa” for “of thrombin”
as §1

[2] = target: T3, trypsin, type IX from porcine pancreas (Sus scrofa, UniProt P00761); assay: Trypsin Assay; conditions: substrate L-BAPNA, 60 min at room temperature, pH 8.0; read-out: Trypsin II IC50
T3 construct: purchased Sigma, St Louis Mo. type IX; host or cells: porcine pancreas
Method: 5 ug/ml trypsin, type IX from porcine pancreas and 0.375 mM N-α-Benzoyl-L-arginine-p-nitroanilide (LBAPNA) are added to a 96-well assay plate containing either inhibitor or buffer (50 mM Tris-HCl, pH 8.0, 100 mM NaCl, 0.1% BSA). The reactions, in a final volume of 100 ul are measured immediately at 405 nm to determine background absorbance. The plate is incubated at room temperature for 60 min, at which time the rate of hydrolysis of the substrate is measured by monitoring the reaction at 405 nm for the release of p-nitroaniline. Percent inhibition of trypsin activity is calculated from OD405 nm value from the experimental and control sample.
as §1

T3 sequence (P00761 9-231): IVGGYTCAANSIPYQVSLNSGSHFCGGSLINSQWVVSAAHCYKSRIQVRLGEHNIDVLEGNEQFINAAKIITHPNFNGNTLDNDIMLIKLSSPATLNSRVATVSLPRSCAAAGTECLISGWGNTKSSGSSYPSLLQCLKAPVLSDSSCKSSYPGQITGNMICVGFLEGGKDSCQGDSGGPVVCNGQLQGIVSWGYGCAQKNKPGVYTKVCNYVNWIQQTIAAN
T2 sequence (P00742 235-488 limits assumed): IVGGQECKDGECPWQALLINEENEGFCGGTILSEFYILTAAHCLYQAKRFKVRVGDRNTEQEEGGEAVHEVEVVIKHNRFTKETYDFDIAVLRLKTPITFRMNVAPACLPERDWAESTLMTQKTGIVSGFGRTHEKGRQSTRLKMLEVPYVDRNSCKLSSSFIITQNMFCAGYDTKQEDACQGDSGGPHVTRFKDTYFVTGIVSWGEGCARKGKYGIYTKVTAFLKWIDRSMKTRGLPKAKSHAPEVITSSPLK
T2 sequence (P00742 41-179 limits assumed): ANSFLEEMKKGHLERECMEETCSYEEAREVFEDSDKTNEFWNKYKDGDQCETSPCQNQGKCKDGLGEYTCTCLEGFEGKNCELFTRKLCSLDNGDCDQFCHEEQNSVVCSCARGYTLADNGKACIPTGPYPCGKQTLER
T1 sequence (P08709 213-466 limits assumed): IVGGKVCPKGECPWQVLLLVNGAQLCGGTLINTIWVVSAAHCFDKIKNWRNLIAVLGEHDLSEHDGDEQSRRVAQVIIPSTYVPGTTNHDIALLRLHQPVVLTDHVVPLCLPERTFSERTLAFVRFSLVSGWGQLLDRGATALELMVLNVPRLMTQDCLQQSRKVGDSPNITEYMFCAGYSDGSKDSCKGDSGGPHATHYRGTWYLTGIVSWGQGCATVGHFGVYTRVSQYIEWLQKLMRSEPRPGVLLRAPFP
T1 sequence (P08709 61-212 limits assumed): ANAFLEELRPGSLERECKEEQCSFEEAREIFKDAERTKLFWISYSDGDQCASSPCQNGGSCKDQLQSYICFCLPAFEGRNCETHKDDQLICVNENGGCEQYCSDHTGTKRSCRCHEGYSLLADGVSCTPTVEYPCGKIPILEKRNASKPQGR
T1 sequence (P13726 33-251 partner limits assumed): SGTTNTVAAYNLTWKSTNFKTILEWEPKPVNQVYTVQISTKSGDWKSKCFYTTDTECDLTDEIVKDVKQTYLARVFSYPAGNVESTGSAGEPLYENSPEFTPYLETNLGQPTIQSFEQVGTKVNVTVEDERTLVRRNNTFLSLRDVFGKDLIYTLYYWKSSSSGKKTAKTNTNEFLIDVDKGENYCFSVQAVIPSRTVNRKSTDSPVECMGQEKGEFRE

SMILES	IC50 [1] [µM]	IC50 (human thrombin) [µM]	IC50 (human factor Xa) [µM]	IC50 [2] [µM]
N=C(N)c1ccc(CNC(=O)Cn2c(=O)c(NS(=O)(=O)Cc3ccccc3)cn(Cc3ccccc3)c2=O)cc1 [Example 1]	> 100	13	25.6	0.4
N=C(N)NCCC[C@H](NC(=O)Cn1c(=O)c(NS(=O)(=O)Cc2ccccc2)cn(Cc2ccccc2)c1=O)C(=O)c1nccs1 [Example 2]	12.9	0.3	0.2	0.2
